Test results published in ChEMBL document CHEMBL2094269, “WEHI/Eskitis Trypanosoma b. brucei screening data”.

Tested on: Trypanosoma brucei brucei
Test: microbe, parasite or virus in culture
Type: functional, organism-based, STIB 795
Conditions: Trypanosoma brucei, STIB 795
Description: DNDI: Inhibition of Human African Trypanosomiasis (HAT), STIB 795, in vitro

IC50, > 10.4 µM:
COc1ccc2nc(C)cc(Nc3ccc(N4CCOCC4)cc3)c2c1
O=C(CC(SCCO)c1ccc2c(c1)OCO2)c1cccs1 (centres undefined)
CCOC(=O)c1c(N)sc2c(OCC)c(Br)ccc12
Oc1c(C(c2ccccn2)N2CCCCC2)cc(Cl)c2cccnc12 (centres undefined)
CC(=O)C1=C(c2ccc(Br)cc2)C(=O)c2ccccc2C1=O
N#CC1=C(N)NC(SCc2ccc(F)cc2)=C(C#N)C12CCCCC2
Clc1ccc(-c2nnc(NCCN3CCCC3)c3ccccc23)cc1
COc1cc2c(cc1Cl)/C(=C\CCN(C)C)c1ccccc1S2
CC(NCC(O)COCCC12CC3CC(CC(C3)C1)C2)c1ccccc1 (centres undefined)
Nc1nc(Nc2ccccc2)sc1C(=O)c1c[nH]c2ccccc12
CCOc1ccc(C(=O)N/N=C(\c2ccccc2)c2ccccn2)cc1
Cc1cc(Br)cc(/C=N/NC(=O)c2ccncc2)c1O
CC(=O)Nc1cccc2c1C(=O)C(Cl)=C(N1CCOCC1)C2=O
CC1=C/C(=N\OC(=O)c2ccccc2Br)CC(C)(C)C1
Cc1cc(C(=O)N/N=C/c2ccc(-c3cccc(C(=O)O)c3)o2)[nH]n1
Cc1c(-c2cc(F)cc3c2CC(C)(C)O3)ccc2nc(N)nc(N)c12
CC1C(=O)Nc2ccc(S(=O)(=O)N3CCOCC3)cc2NC1=O (centres undefined)
CCCc1ccc(C(OCCN(C)C)c2ccc(CCC)cc2)cc1
O=C1C(O)=C/C(=N/c2ccc(Cc3ccncc3)cc2)c2ccccc21
OCCSc1nc2ccccc2nc1N/N=C/c1ccccc1O
Cc1cccc(/C(=N\c2ccc(C)c(Cl)c2)NC2CCCCC2)c1
O=C(NCC1CCCO1)C(=O)N/N=C/c1c(O)ccc2ccccc12 (centres undefined)
COCC(=O)N/N=C/c1ccc(Sc2cccc3cccnc23)o1
O=C(CCSc1ccccc1)Nc1nc(-c2ccccn2)cs1
CON(C)C(=O)Nc1ccc(Cl)c(CN2OCC(C)(C)C2=O)c1
CCn1c2ccccc2c2cc(/C=N/NC(=O)c3ccccn3)ccc21
CCS(=O)(=O)c1cccc(-c2ccc3nc(N)nc(N)c3c2C)c1
O=C(Cc1cccs1)Nc1ccc(C(=O)Nc2nccs2)cc1
Cc1nc(SCC(=O)NC2CCCCC2)n(-c2ccccc2)c1C
CCOC(=O)c1ccc(CCCCCOc2cnc(N)nc2N)cc1
Cc1ccc2[nH]c3c(c2c1)CCC(/C=N/NC(=O)c1ccccc1)C3=O (centres undefined)
CC(C)(C)c1ccc(C(CN)c2ccc(Oc3ccccc3)cc2)cc1 (centres undefined)
Cc1ccc(NC(=O)C/C(N)=N/OC(=O)c2ccccc2Cl)cc1
O=C(Nc1nccs1)c1ccc(=O)n(Cc2ccccc2Cl)c1
N#C/C(=C\Nc1cc(Cl)ccc1O)c1nc2cc(Cl)ccc2o1
CCOC(=O)c1ccc(NC(=O)C(=O)NN=C2CCN(C)CC2)cc1
CCN(CC)C1=C(n2nnc3ccccc32)C(=O)c2ccccc2C1=O
CCC(C)NC(=O)c1cccc(Nc2ccnc(-c3ccccc3)n2)c1 (centres undefined)
CC(C)CCn1c(/C=N/Nc2nc3ccccc3[nH]2)nc2ccccc21
C=CCn1c(Oc2ccccc2Cl)nc2c1c(=O)n(C)c(=O)n2C
CCOC(=O)CNC(=O)c1ccc2c(Cl)c3c(nc2c1)CCCC3
O=C(CC1(O)C(=O)Nc2ccc(Br)cc21)c1ccccn1 (centres undefined)
C/C(=N\N1C(=O)c2ccccc2NC1c1ccco1)c1ccccc1O (centres undefined)
CCCC1(CCC)c2ccccc2C(=CCCN(C)C)c2ccccc21
CCOc1nc(Nc2ccc(Cl)cc2)nc(NC2CCCCC2)n1
Cc1cc(C(=O)N/N=C/c2cc(/N=N/c3ccccc3)ccc2O)[nH]n1
COC(=O)CCC/C=C1/SC[C@@H](NC(=O)c2ccccc2)/C1=N/O
N#Cc1c(N)nc(SCc2ccccc2)c(C#N)c1C1CCCCC1
OC(CNCCc1ccccc1)Cn1c2c(c3ccccc31)CCCC2 (centres undefined)
O=C(N/N=C/c1ccc(Br)cc1O)c1n[nH]c2c1CCC2
O=C(Nc1ccccc1C(=O)N/N=C/c1ccccc1O)c1ccco1
CC(=O)c1sc(Nc2nc(NC(C)C)nc(NC(C)C)n2)nc1C
N#Cc1c(Cl)ncc2c1Nc1ccccc1C2Sc1ccccc1 (centres undefined)
Cc1nc(N)nc(N)c1[C@@H]1CCC[C@@H](c2ccc(C(F)(F)F)cc2)C1
CCc1cc(-c2n[nH]c(C)c2-c2nc3ccccc3s2)c(O)cc1O
Nc1ccccc1SC(CC(=O)c1ccc(F)cc1)c1ccccc1 (centres undefined)
O=C1C(=O)N(Cc2cc(F)cc(F)c2)c2ccc(Br)cc21
O=C(O/N=C(/c1ccc2c(c1)OCO2)N1CCCCC1)c1ccccc1
C=CCNC(=O)CCCc1nc2cccnc2n1Cc1ccc(F)cc1
CC(C)(C)C(=O)Nc1cccc(NC(=O)c2ccc(C(C)(C)C)cc2)c1
CCCN1C/C(=C/c2cccc(F)c2)C(=O)/C(=C/c2cccc(F)c2)C1
O=C(N/N=C/c1cc(Cl)ccc1O)c1ccccc1Br
CC1(C)CC(=O)C(C2(O)C(=O)Nc3ccc(Br)cc32)CO1 (centres undefined)
NC(=S)N/N=C/c1ccc(OCc2c(Cl)cccc2Cl)cc1
COc1ccc(-c2noc(CCC(=O)Nc3ccncc3)n2)cc1OC
Cn1c(=O)n(C)c2cc(N3CCCCC3)c(NC(=O)c3ccco3)cc21
Cc1nc2ncnn2c(Sc2ccc(NC(=O)CC(C)C)cc2)c1C
CCOC(=O)Cc1csc(NC(=S)NC(=O)C2CCCCC2)n1
Clc1ccc(C(=C2CN3CCC2CC3)c2ccc(Cl)s2)s1
COc1ccccc1C(=O)NCCc1csc(-c2cccc(F)c2)n1
Fc1ccc(C2CCCN(CCN3CCCC3)c3cc(F)ccc32)cc1 (centres undefined)
Cc1nc(NC(C)(C)C)c2sc3nc4c(cc3c2n1)COC(C)(C)C4
O=C1c2ccc(Cl)c3c(Cl)ccc(c23)C(=O)N1Nc1ccccc1
CCC(C)(CC)c1ccc(C(CN)c2ccc(-c3ccccc3)cc2)cc1 (centres undefined)
